The values below come from PMC6107127, “Characteristics of the mitochondrial and cellular uptake of MPP^+, as probed by the fluorescent mimic, 4'I-MPP^+” (PLoS ONE, 2018).

As usually defined, the IC50 is the concentration that gives 50% inhibition. A higher IC50 goes with a need for much substance.

Series [1] deals with MN9D cells. The settings on record: 5 μM FCCP 30 min, then 50 μM toxin 45 min. On the procedure:
(§1) Cells grown in 12-well plates were washed and incubated with 5 μM FCCP in KRB-HEPES for 30 min followed by 50 μM MPP^+ or 4'I-MPP^+ in the same buffer for 45 min at 37 °C. After the incubations, cells were washed with ice-cold KRB-HEPES and treated with 0.1 M HClO4. The intracellular MPP^+ or 4'I-MPP^+ contents of HClO4 extracts were quantified by HPLC-UV as detailed above. The controls were treated under the same conditions except that FCCP was omitted from the initial incubation. All uptake data were normalized to the respective protein concentration of each sample. To visualize the effect of FCCP on the mitochondrial accumulation of 4'I-MPP^+, cells were grown in glass bottomed plates and incubated with 5 μM FCCP in KRB-HEPES for 30 min followed by 100 μM 4'I-MPP^+ for 1 h at 37 °C. Then cells were washed and reconstituted with 1 mL of KRB-HEPES and the intracellular 4'I-MPP^+ fluorescence (Ex/Em 340/470-550 nm) were recorded.

Series [2] has as its system HepG2 cells. As to conditions: 5 μM FCCP 30 min, then 50 μM toxin 45 min; in comparison to MN9D cells. On the procedure:
as §1

The test system of series [3] is MN9D cells. Put plainly: MTT cell viability assay. As to conditions: Mus musculus, 16 h incubation. It is filed as cell-based. The procedure: (§2) Cell viability was determined by the MTT [3-(4,5-dimethylthiazol-2-yl)-2,5-diphenyltetrazolium bromide)] assay. Briefly, cells were seeded on 96-well plates and allowed to grow to about 70–80% confluence. Prior to the experiment, culture media was replaced with KRB-HCO3^- containing desired concentrations of MPP^+ or 4'I-MPP^+ and incubated for 16 h at 37 °C. After the incubation, 10 μL of 5 mg/mL MTT solution was added to each well and incubated for 2 h at 37 °C. The resulting formazan was solubilized by the addition of 210 μL detergent solution [50% DMF/H2O (v/v), 20% SDS (w/v)] followed by incubation at 37 °C for 12 h. The cell viabilities were determined by quantifying solubilized formazan by measuring the difference in the absorbance at 570 nm and 650 nm. Results were expressed as % viability of MPP^+ or 4'I-MPP^+ treated cells with respect to control cells, which were treated under the same conditions except in the absence of the MPP^+ or 4'I-MPP^+.
For orientation: Tetrazolium assays rely on reduction of a dye to a coloured formazan, in cell work by metabolically active cells.

Another series has as its system MN9D or HepG2 cells. Put plainly: Mitochondrial membrane potential depolarization (TMRM). It is filed as cell-based. As to conditions: 500 μM, in about 45 min. The procedure:
MN9D or HepG2 cells grown in glass-bottomed plates were treated with 50 nM TMRM (AnaSpec, Fremont CA, USA) in KRB-HEPES for 45 min in the dark. After mounting on the stage of a Nikon ECLIPSE Ti-S inverted fluorescence microscope, 15–20 ROIs with uniform fluorescence were selected and TMRM fluorescence at Ex/Em at 543/573 nm was recorded at 5 sec time intervals for 3 min. Then, MPP^+ or 4'I-MPP^+ was added to a final concentration of 500 or 100 μM, respectively and TMRM fluorescence measurements were continued for an additional 40 min for MPP^+ and 15 min for 4'I-MPP^+ at 15 sec time intervals. The background fluorescence was subtracted from the ROI fluorescence and averages of corrected data were used to estimate the magnitude of the mitochondrial membrane potential.

The subject of series [4] is HepG2 cells. Put plainly: Intracellular ATP levels. The class given is cell-based, human. The settings on record: 100 μM, 6 h at 37 °C. The procedure: (§3) Cells grown in 12-well plates were treated with 100 μM MPP^+ or 4'I-MPP^+ in KRB-HEPES for 6 h at 37 °C. After the treatments, cells were suspended in 1 mL of ice-cold KRB-HEPES and 50 μL samples were withdrawn for protein quantification. The remaining cell suspensions were centrifuged for 3 min at 3,500 x g at 4 °C and the cell pellets were treated with 1 mL of lysis buffer (0.1 M Tris, 1% Triton X-100, pH 7.5) for 2 min and centrifuged at 3,500 x g for 3 min to remove the cell debris. The ATP contents of the supernatants were measured using a fluorometric ATP assay kit (BioVision, Milpitas CA, USA) following the manufacture’s guidelines. All ATP levels were normalized to the protein content of each sample.

The subject of series [5] is rat brain mitochondrial complex-I (NADH: ubiquinone oxidoreductase). Put plainly: Ubiquinone dependent NADH oxidation (complex-I inhibition). The class given is biochemical. As to conditions: 200 μM. The procedure:
Isolated rat brain mitochondria were lysed by freeze-thawing in hypotonic media containing 25 mM K3PO4 and 5 mM MgCl2, pH 7.2 [22]. The complex-I (i.e. NADH: ubiquinone oxidoreductase) activity of mitochondrial membrane fragments were determined according to the procedure of Birch-Machin and Turnbull. Briefly, mitochondrial membranes (50 μg protein) were incubated with 130 μM NADH (final concentration) and Antimycine A (2 μg/mL) in a 1.0 mL assay solution containing 25 mM K3PO4, 5 mM MgCl2, 2 mM KCN, 2.5 mg/mL bovine serum albumin, pH 7.2, for 2 min at 37 °C with or without rotenone, MPP^+ or 4'I-MPP^+ (for further details see the corresponding figure legends). The complex-I mediated ubiquinone dependent NADH oxidation was initiated by adding ubiquinone-1 to a final concentration of 65 μM and the initial rates of the reactions were monitored by following the decrease in absorbance at 340 nm with respect to 425 nm reference wavelength for 5 min.

The subject of series [6] is HepG2 cells. Put plainly: Cellular uptake of MPP+ and 4'I-MPP+ (HPLC-UV / fluorescence). The settings on record: 100 μM toxin, 60 min. It is filed as cell-based, human. The procedure: (§4) Cells were seeded into 12-well plates at 0.25 x 10^6 cells/well and grown 2–3 days to about 70–80% confluency. The media was removed and a solution containing 100 μM MPP^+ or 4'I-MPP^+ in warm KRB-HEPES (or without Ca^2+ and with 1.4 mM EGTA) was added to each well and incubated at 37 °C for the desired period of time (see Figure legends for further details). After the incubations, the media were removed and cells were washed with ice-cold KRB-HEPES. Washed cells were suspended in 1.0 mL of ice-cold KRB-HEPES and 50 μL aliquots were withdrawn for protein determination. The remaining cell suspensions were centrifuged at 5000 x g at 4 °C for 5 min and the cell pellets were treated with 75 μL of 0.1 M HClO4. The coagulated proteins were pelleted by centrifugation at 13,200 x g at 4 °C for 8 min and the MPP^+ or 4'I-MPP^+ contents of the supernatants were determined by C18-reversed-phase HPLC-UV (HPLC-UV) as previously described using standard curves constructed from authentic standards. The standard curves for HPLC-UV quantifications were constructed using authentic samples of MPP^+ and 4'I-MPP^+ under the same HPLC-UV separation conditions (S1 Fig).
(§5) To quantify 4'I-MPP^+ uptake by fluorescence, MN9D or HepG2 cells grown in glass bottomed plates, washed, and reconstituted with KRB-HEPES (1.0 mL), pH 7.4, and mounted on the stage of a Nikon ECLIPSE Ti-S inverted fluorescence microscope. […]

For series [7], the system named is MN9D cells. Put plainly: Intracellular ROS (DCFH-DA). The settings on record: 100 μM, 1 h at 37 °C. The class given is cell-based, mouse. The procedure: Cells grown in 12-well plates were incubated with 10 μM DCFH-DA in KRB-HEPES for 1 h. […] After the incubations, cells were washed, harvested, solubilized with 0.1 M Tris buffer (pH 7.5) containing 1% Triton X-100, and cell debris were removed by centrifugation at 13,200 x g for 8 min at 4 °C. The content of ROS-oxidized DCFH product, 2',7'-dichlorofluorescein (DCF) in the supernatants were quantified by fluorescence (Ex/Em 488/524 nm). The data were normalized to the protein contents of individual samples. ROS productions in DCFH-DA (50 μM) loaded 250 μM 4'I-MPP^+ treated (4 h) live MN9D cells were visualized by confocal fluorescence microscopy at Ex/Em 488/524 nm using a Leica TCS SP5II microscope.

The subject of series [8] is MN9D cells. Put plainly: Intracellular ATP levels. The settings on record: 100 μM, 6 h at 37 °C. It is filed as cell-based, mouse. The procedure:
as §3

The nature of series [9]: Relative HPLC elution times and hydrophobicities. The class given is physicochemical.
Series [10] relates to HepG2 cells. Put plainly: MTT cell viability assay. The class given is cell-based, human. As to conditions: MPP+ at 0–1000 μM, 4'I-MPP+ at 0–200 μM; 16 h. The procedure: as §2
Series [11] has as its system MN9D cells. Put plainly: Chromatin condensation test for apoptosis (DAPI). It is filed as cell-based, mouse. As to conditions: 250 μM, 12 h. On the procedure: MN9D cells grown in glass-bottomed plates were treated with 250 μM MPP^+ or 4'I- MPP^+ for 12 h and then with 300 nM DAPI in KRB-HEPES for 15 min in the dark at 37 °C [24]. Then cells were rinsed and PBS was added to cover the cell layer. Increase in nuclear DAPI fluorescence (Ex/Em at 358/461 nm) due to chromatin condensation was observed using a Nikon ECLIPSE Ti-S inverted fluorescence microscope. The controls were treated similarly except that MPP^+ or 4'I-MPP^+ was omitted from the initial incubation medium.

In series [12] the test system is MN9D cells. Put plainly: Cellular uptake of MPP+ and 4'I-MPP+ (HPLC-UV / fluorescence). The class given is cell-based, mouse. The settings on record: 100 μM toxin, 60 min, 37 °C, KRB-HEPES. On the procedure: as §4, §5

SMILES strings stand for the structures.

As to `N#CC(C#N)=NNc1ccc(OC(F)(F)F)cc1` [FCCP, carbonyl cyanide-p-trifluoromethoxyphenylhydrazone], the “effect on cellular accumulation of MPP+ and 4'I-MPP+” value is reported as “significantly decreased” with MN9D cells [1] and “stronger effect” in the series with HepG2 cells [2].
In the case of `C[n+]1ccc(-c2ccccc2)cc1` [MPP^+, 1-methyl-4-phenylpyridinium], the IC50 with MN9D cells [3] was approximately 125 µM. For the same molecule, in the series on MN9D or HepG2 cells, the “depolarization of the mitochondrial membrane” value is 20–50%. Besides, the “effect on intracellular ATP levels” value in the series with HepG2 cells [4] and with MN9D cells [8] was “deplete intracellular ATP levels” each time. Moreover, the “inhibition of the complex-I activity” value in series [5] was determined as 21%. In addition, the “cellular uptake in 60 min” value in the series on HepG2 cells [6] is on record as “about 1.2 nmoles/mg”. Also, in the series on MN9D cells [7], the “effect on ROS production” value is “increase ROS production”. Besides, the “relative elution time (hydrophobicity)” value in series [9] (Buffer:CH3CN 70:30) was 5.92; in series [9] (Buffer:CH3CN:MeOH 60:30:10) it was 5.28; in [9] (Buffer:CH3CN:MeOH 65:25:10) it was 6.02. The HepG2 cell toxicity result in the series with HepG2 cells [10] was “resistant”. The “apoptotic cell death (chromatin condensation)” value in the series with MN9D cells [11] is “cause apoptotic MN9D cell death”. Also, the “cellular uptake in 1 h” value in the series on MN9D cells [12] is recorded as 0.6 nmoles/mg of protein.
